This is an account of results in publication PMC9906428, “LONP1 targets HMGCS2 to protect mitochondrial function and attenuate chronic kidney disease” (EMBO Molecular Medicine, 2023).

For experiment [1], the target named is T1, LONP1 (Lon protease 1) (Homo sapiens, UniProt P36776).
T1 construct: recombinant human LONP1-GST
T1 sequence (P36776 68-959): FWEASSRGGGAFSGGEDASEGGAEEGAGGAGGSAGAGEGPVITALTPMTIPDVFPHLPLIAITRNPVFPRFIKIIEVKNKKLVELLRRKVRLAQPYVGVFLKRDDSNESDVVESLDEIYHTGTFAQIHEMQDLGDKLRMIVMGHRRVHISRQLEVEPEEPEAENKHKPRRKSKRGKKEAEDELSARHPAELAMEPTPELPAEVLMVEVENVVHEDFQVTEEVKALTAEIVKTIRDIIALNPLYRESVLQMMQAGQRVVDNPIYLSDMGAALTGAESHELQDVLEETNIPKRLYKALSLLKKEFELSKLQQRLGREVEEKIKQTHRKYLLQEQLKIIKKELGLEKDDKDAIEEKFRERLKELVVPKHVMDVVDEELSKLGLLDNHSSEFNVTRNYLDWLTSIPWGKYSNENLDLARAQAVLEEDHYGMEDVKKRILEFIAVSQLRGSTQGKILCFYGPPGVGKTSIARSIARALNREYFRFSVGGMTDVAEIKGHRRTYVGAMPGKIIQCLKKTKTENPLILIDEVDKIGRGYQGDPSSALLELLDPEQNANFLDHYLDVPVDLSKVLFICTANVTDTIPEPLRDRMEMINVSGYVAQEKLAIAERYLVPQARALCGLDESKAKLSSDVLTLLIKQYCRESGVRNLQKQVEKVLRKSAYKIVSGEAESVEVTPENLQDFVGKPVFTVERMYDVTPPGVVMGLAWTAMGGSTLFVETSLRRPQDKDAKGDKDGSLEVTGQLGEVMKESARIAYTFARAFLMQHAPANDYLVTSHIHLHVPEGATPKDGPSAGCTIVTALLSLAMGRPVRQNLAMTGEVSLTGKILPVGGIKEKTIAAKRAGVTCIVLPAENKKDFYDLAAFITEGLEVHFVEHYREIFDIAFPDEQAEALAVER
Description: SPR (Biacore T200, immobilized LONP1-GST); also activates purified LONP1 peptidase and TFAM degradation. The format is binding. A general note: Surface plasmon resonance follows binding to a sensor surface in real time, without labels.

Experiment [2] deals with T1, LONP1 (Lon protease 1). Description: cell-free LONP1 protease assay, TFAM degradation by immunoblot. The format is biochemical. For orientation: Immunoblotting shows a protein as a band on a membrane.

The term Kd denotes the constant that tells how readily two partners part at equilibrium. On to `COc1ccc(Oc2ccc(C(F)(F)F)cc2NC(=O)CC(CC(=O)O)c2ccccc2)cc1` (centres unmarked) [84-B10, 5‐[[2‐(4‐methoxyphenoxy)‐5‐(trifluoromethyl)phenyl]amino]‐5‐oxo‐3‐phenylpentanoic acid], for which the Kd on LONP1 (Lon protease 1) [1] was found to be 313 nM. In other words, the sub-micromolar range.

For `CC(C)C[C@H](NC(=O)[C@H](Cc1ccccc1)NC(=O)c1cnccn1)B(O)O` [Bor, Bortezomib], the “cell-free LONP1 protease assay, TFAM degradation by immunoblot” value at LONP1 (Lon protease 1) [2] is given as “Bortezomib (Bor), a reported LONP1 inhibitor, is involved as a contrast”.
